Results published in paper PMC5796017, “Enantiomeric Effect of D-Amino Acid Substitution on the Mechanism of Action of α-Helical Membrane-Active Peptides” (International Journal of Molecular Sciences, 2017).
Converted amounts (≈) assume the structure as drawn.

Legend:
S. epidermidis ATCC12228 = assay: Antimicrobial activity, microtiter dilution MIC; format: cell-based, Staphylococcus epidermidis; conditions: G+; MH medium, 5 × 10^5 CFU/mL, 37 °C, 24 h, triplicate
Procedure: (§1) The antimicrobial activity of the peptides was determined by the standard microtiter dilution method and indicated as MIC (minimal inhibitory concentration) as described previously. Briefly, bacteria were cultured in Mueller–Hinton (MH) medium overnight at 37 °C, diluted to a final inoculum of 5 × 10^5 colony-forming units (CFU)/mL with MH and loaded into 96-well microtiter plates (90 μL/well) with serial dilution of peptides (10 μL/well), with a further incubation at 37 °C for 24 h. MIC was expressed as the lowest peptide concentration that inhibited the growth of bacteria. The antimicrobial assays were repeated in triplicate.

BxPC-3 = assay: MTT cell viability assay; format: cell-based, human; conditions: BxPC-3, MTT, 24 h; mean ± SEM of three independent determinations
Procedure: (§2) HeLa, MIA PaCa-2, HPAC, and Bxpc-3 cells were maintained in Dulbecco’s modified Eagle medium) with 10% fetal bovine serum, penicillin (100 U/mL), and streptomycin ([…]) in a humid atmosphere at 37 °C with 5% CO2. The effect of the peptides on the survival of HeLa, MIA PaCa-2, HPAC, and Bxpc-3 cells was determined by 3-(4,5-dimethyl-2-thiazolyl)-2,5-diphenyl-2H-tetrazolium bromide (MTT) assay, as described in a previous study. Briefly, cells were seeded in 96-well plates at a density of 5000 per well. After overnight incubation, cells were incubated, in the absence, or presence of various concentrations of peptides for 24 h. Then, the formazan crystals formed by MTT were dissolved with dimethyl sulfoxide (DMSO) and the absorbance was determined at 492 nm with a microplate reader (GF-M3000; Gaomi Caihong Analytical Instruments Co., Shandong, China). The results were expressed as IC50 values, representing the concentration at which cell viability was reduced by 50%. The cytotoxicity assays were repeated in triplicate.

HeLa = assay: MTT cell viability assay; format: cell-based, human; conditions: 24 h, mean ± SEM of three independent determinations
Procedure: as §2

MIA PaCa-2 = assay: MTT cell viability assay; format: cell-based, human; conditions: MIA PaCa-2, MTT, 24 h; mean ± SEM of three independent determinations
Procedure: as §2

HPAC = assay: MTT cell viability assay; format: cell-based, human; conditions: 24 h, mean ± SEM of three independent determinations
Procedure: as §2

[1] = Circular dichroism (CD) secondary structure; format: physicochemical; conditions: for [θ]222, benign / [θ]222, 50% TFE: CD, 75 μM peptide, 25 °C; for [θ]222, benign: KP buffer (100 mM KCl, 50 mM KH2PO4/K2HPO4, pH 7.4); for [θ]222, 50% TFE / α-Helix (%), 50% TFE (relative helicity): KP buffer with 50% TFE; for α-Helix (%), 50% TFE (relative helicity) / α-Helix (%), benign: relative to molar ellipticity of V13K in 50% TFE; for α-Helix (%), benign: KP buffer
Text: The influence of the amino acid substitutions on the peptide secondary structure were investigated using circular dichroism (CD) spectroscopy under benign conditions (KP buffer) and under conditions designed to mimic the hydrophobic environment of the membrane (KP buffer with 50% TFE). D-amino acid substitutions reduced the helicity of the peptide analogs relative to that of peptide V13K, in both KP buffer and KP buffer with 50% TFE. […] As shown in Table 2 and Figure S1, the values of the relative helicity of peptides with polar face substitutions are in the order of K14D (76.99%) > S11D/K14D (51.33%) > S11D/K14D/T15D (38.67%). Similarly, the relative helicity of the peptides with substitutions on the non-polar face follows the same trend: A12D (70.83%) > F9D/A12D (38.26%) > F9D/A12D/V16D (36.41%). Since the values of the relative helicity of the peptides with D-amino acid substitutions on the non-polar face were less than those peptide analogs with the same number of D-amino acid substitutions on the polar face, it is clear that the amino acid residues on the non-polar face may be more important for stabilizing the α-helical structure than residues on the polar face.
The secondary structures of the peptides were examined using a Jasco J-810 CD spectrometer (Jasco, Easton, MD, USA) at 25 °C as described previously. […] The mean residue molar ellipticities were calculated according to the equation [θ] = θ/10lCMn, in which, θ represents the ellipticity in millidegrees, l is the optical path length of the cuvette in centimeters, CM is the peptide concentration in mol/L, and n is the number of residues in the peptide. The mean residue molar ellipticities at 222 nm, [θ]222 (degree·cm^2·dmol^−1), were used to calculate the relative helical content of the peptides.

P. aeruginosa ATCC27853 = assay: Antimicrobial activity, microtiter dilution MIC; format: cell-based, Pseudomonas aeruginosa; conditions: G−; MH medium, 5 × 10^5 CFU/mL, 37 °C, 24 h, triplicate
Procedure: as §1

[2] = tested on: human red blood (hRBC) cells; assay: Hemolytic activity assay; format: cell-based; conditions: 2% human RBC in PBS, 37 °C, 2 h, absorbance 578 nm, triplicate
Procedure: The […] of the peptides was measured by a hemolytic activity assay as described previously. Briefly, healthy human RBCs were collected using an anticoagulation tube with EDTAK2 and centrifuged at 1000 rpm for 5 min. The erythrocytes were washed three times, then diluted to a concentration of 2% in phosphate-buffered saline (PBS). The peptides were serially diluted in PBS and 70 μL of the peptide solutions and 2% RBC suspension were added simultaneously to each well of a 96-well plate (round bottom) for a further incubation at 37 °C for 2 h. Then, the plates were centrifuged for 10 min at 3000 rpm and the supernatant (90 μL) was transferred to a 96-well plate (flat bottom). The absorbance of the supernatant was measured on a microplate reader at 578 nm. Erythrocytes in PBS and distilled water were used as the negative (0%) and positive (100%) controls, respectively. The hemolytic activity was calculated as the percentage of experimental group over positive control (100%), after subtraction of negative control (0%). The hemolytic assays were repeated in triplicate.

[3] = RP-HPLC retention time as relative hydrophobicity; format: physicochemical; conditions: 25 °C, used by the paper as measure of relative hydrophobicity
Procedure: The RP-HPLC retention time has been widely used to represent the relative hydrophobicity of peptides in many studies.The relative hydrophobicity of the peptides was determined by the RP-HPLC retention times at 25 °C. The change in hydrophobicity of the peptides caused by D-amino acid substitutions was mainly due to the disruption of the helical structure.

S. aureus ATCC25923 = assay: Antimicrobial activity, microtiter dilution MIC; format: cell-based, Staphylococcus aureus; conditions: G+; MH medium, 5 × 10^5 CFU/mL, 37 °C, 24 h, triplicate
Procedure: as §1

E. coli ATCC25922 = assay: Antimicrobial activity, microtiter dilution MIC; format: cell-based, Escherichia coli; conditions: G−; MH medium, 5 × 10^5 CFU/mL, 37 °C, 24 h, triplicate
Procedure: as §1

| SMILES | MIC (S. epidermidis ATCC12228) [µM] | IC50 (BxPC-3) [µM] | IC50 (HeLa) [µM] | IC50 (MIA PaCa-2) [µM] | IC50 (HPAC) [µM] | [θ]222, benign [1] [degree·cm^2·dmol^−1] | [θ]222, 50% TFE [1] | α-Helix (%), 50% TFE (relative helicity) [1] [%] | α-Helix (%), benign [1] [%] | MIC (P. aeruginosa ATCC27853) [µM] | MHC (minimal hemolytic concentration) [2] [µM] | tR (RP-HPLC retention time), relative hydrophobicity [3] [min] | MIC (S. aureus ATCC25923) [µM] | MIC (E. coli ATCC25922) [µM] |
| --- | --- | --- | --- | --- | --- | --- | --- | --- | --- | --- | --- | --- | --- | --- |
| CC[C@H](C)[C@H](NC(=O)[C@H](C)NC(=O)[C@H](CCCCN)NC(=O)[C@H](CC(C)C)NC(=O)[C@H](C)NC(=O)[C@@H](NC(=O)[C@H](Cc1c[nH]cn1)NC(=O)[C@H](CC(C)C)NC(=O)[C@@H](NC(=O)[C@@H](NC(=O)[C@@H](CCCCN)NC(=O)[C@H](CCCCN)NC(=O)[C@H](C)NC(=O)[C@@H](CO)NC(=O)[C@H](CCCCN)NC(=O)[C@H](Cc1ccccc1)NC(=O)[C@@H](NC(=O)[C@H](CCCCN)NC(=O)[C@H](CC(C)C)NC(=O)[C@H](Cc1ccccc1)NC(=O)[C@H](CO)NC(=O)[C@H](CCCCN)NC(=O)[C@H](Cc1c[nH]c2ccccc12)NC(=O)[C@H](CCCCN)NC(C)=O)[C@@H](C)O)[C@@H](C)O)C(C)C)[C@@H](C)O)C(=O)N[C@@H](CO)C(=O)N[C@@H](CO)C(N)=O [S11D/K14D] | 16 (≈ 47.9 µg/mL) | 22.4 ± 2.3 | 30.6 ± 0.5 | 41.3 ± 2.6 | 25.5 ± 0.5 | −3524.85 | −25,931.3 degree·cm^2·dmol^−1 | 51.33 | 7.0 | 32 (≈ 95.7 µg/mL) | 125 | 40.77 | 64 (≈ 191 µg/mL) | 64 (≈ 191 µg/mL) |
| CC[C@H](C)[C@H](NC(=O)[C@H](C)NC(=O)[C@H](CCCCN)NC(=O)[C@H](CC(C)C)NC(=O)[C@H](C)NC(=O)[C@@H](NC(=O)[C@H](Cc1c[nH]cn1)NC(=O)[C@H](CC(C)C)NC(=O)[C@@H](NC(=O)[C@H](NC(=O)[C@@H](CCCCN)NC(=O)[C@H](CCCCN)NC(=O)[C@H](C)NC(=O)[C@H](CO)NC(=O)[C@H](CCCCN)NC(=O)[C@H](Cc1ccccc1)NC(=O)[C@@H](NC(=O)[C@H](CCCCN)NC(=O)[C@H](CC(C)C)NC(=O)[C@H](Cc1ccccc1)NC(=O)[C@H](CO)NC(=O)[C@H](CCCCN)NC(=O)[C@H](Cc1c[nH]c2ccccc12)NC(=O)[C@H](CCCCN)NC(C)=O)[C@@H](C)O)[C@H](C)O)C(C)C)[C@@H](C)O)C(=O)N[C@@H](CO)C(=O)N[C@@H](CO)C(N)=O [K14D/T15D] | 16 (≈ 47.9 µg/mL) | 24.1 ± 5.5 | 31.6 ± 2.1 | 47.1 ± 5.3 | 22.5 ± 0.5 | −1862.4 | −28,551.5 degree·cm^2·dmol^−1 | 56.51 | 3.7 | 32 (≈ 95.7 µg/mL) | 250 | 40.41 | 64 (≈ 191 µg/mL) | 64 (≈ 191 µg/mL) |
| CC[C@H](C)[C@H](NC(=O)[C@H](C)NC(=O)[C@H](CCCCN)NC(=O)[C@H](CC(C)C)NC(=O)[C@H](C)NC(=O)[C@@H](NC(=O)[C@H](Cc1c[nH]cn1)NC(=O)[C@H](CC(C)C)NC(=O)[C@@H](NC(=O)[C@@H](NC(=O)[C@H](CCCCN)NC(=O)[C@H](CCCCN)NC(=O)[C@@H](C)NC(=O)[C@H](CO)NC(=O)[C@H](CCCCN)NC(=O)[C@H](Cc1ccccc1)NC(=O)[C@@H](NC(=O)[C@H](CCCCN)NC(=O)[C@H](CC(C)C)NC(=O)[C@H](Cc1ccccc1)NC(=O)[C@H](CO)NC(=O)[C@H](CCCCN)NC(=O)[C@H](Cc1c[nH]c2ccccc12)NC(=O)[C@H](CCCCN)NC(C)=O)[C@@H](C)O)[C@@H](C)O)C(C)C)[C@@H](C)O)C(=O)N[C@@H](CO)C(=O)N[C@@H](CO)C(N)=O [Peptide A12D] | 16 (≈ 47.9 µg/mL) | 45.1 ± 1 | 28.8 ± 0.8 | 29.9 ± 4.8 | 15.5 ± 1.7 | −4130.9 | −35,785.1 degree·cm^2·dmol^−1 | 70.83 | 8.2 | 16 (≈ 47.9 µg/mL) | 125 | 41.46 | 64 (≈ 191 µg/mL) | 32 (≈ 95.7 µg/mL) |
